Experimental data reported in patent US4723008A, “Isoprenylamine derivatives” (priority 1981, dated 1988).

Key:
[1] = tested on: vaccinia virus; type: in vivo, vaccinia virus; ICR female mice; conditions: 50 mg/kg intraperitoneally 24 hours before inoculation; lesions counted on 8th day
[2] = tested on: tumor cells KN7 -8; assay: Anti-tumor activity (survivors on the 30th day); type: in vivo, Balb/c male mice; conditions: 30 mg/kg intraperitoneally 3 times (24 hours before, second and fifth day after inoculation of 5×10^5 cells); survivors/group
From the text: Groups, each consisting of Balb/c male mice weighing about 20 g, were intraperitoneally administered 5×10^5 of tumor cells KN7 -8.

[3] = tested on: Human interferon (normal diploid cells (fibroblast) originated from human being); assay: Human interferon inducing activity (in vitro), 3H-uridine-uptake inhibition; type: cell-based; conditions: 25 n molar suspension
Experimental: (5) Human interferon inducing activity (in vitro)
Interferon was induced according to the method of Edward A. Havell et al. by treating normal diploid cells (fibroblast) originated from human being with each test compound in the form of ethanol solution diluted with PBS (--), (25 n molar suspension). Using the radioisotope microassay method or H. Ishitsuka et al., interferon was measured in terms of 3H-uridine-uptakeinhibition rate.

[4] = Toxicity, 50% lethal dose, intravenous; conditions: mouse, in vivo, ddY male mice, read-out: LD50 (Intravenous administration mg/kg)
From the text: Using ddY male mice weighing 20-25 g, 50% lethal dose of each test compound intravenously administered was obtained, the results of which are shown in Table 6.

[5] = tested on: vaccinia virus (vero cells); type: cell-based; conditions: 50 n molar concentration

SMILES | Prevention from vaccinia infection (Pock inhibition rate %) [1] [%] | Human interferon 3H-uridine-uptake inhibition rate (%) [3] [%] | also measured
COc1ccc(CN(CC=C(C)CCC=C(C)CCC=C(C)CCC=C(C)CCC=C(C)CCC=C(C)CCC=C(C)CCC=C(C)CCC=C(C)C)CC=C(C)CCC=C(C)CCC=C(C)CCC=C(C)CCC=C(C)CCC=C(C)CCC=C(C)CCC=C(C)CCC=C(C)C)cc1OC | 32.4 | – | –
CC(C)=CCCC(C)=CCCC(C)=CCCC(C)=CCCC(C)=CCCC(C)=CCCC(C)=CCCC(C)=CCCC(C)=CCN(CC=C(C)CCC=C(C)CCC=C(C)CCC=C(C)CCC=C(C)CCC=C(C)CCC=C(C)CCC=C(C)CCC=C(C)C)CCCCc1ccccc1 | 34.1 | – | –
COc1ccc(CN(CC=C(C)CCC=C(C)CCC=C(C)CCC=C(C)CCC=C(C)CCC=C(C)CCC=C(C)CCC=C(C)CCC=C(C)CCC=C(C)C)CC=C(C)CCC=C(C)CCC=C(C)CCC=C(C)CCC=C(C)CCC=C(C)CCC=C(C)CCC=C(C)CCC=C(C)CCC=C(C)C)cc1 | 38.8 | – | –
CC(C)=CCCC(C)=CCCC(C)=CCCC(C)=CCCC(C)=CCCC(C)=CCCC(C)=CCCC(C)=CCCC(C)=CCN(CCCN)CCCN | – | – | Anti-tumor activity (Survivor on the 30th day) [2]: 4/6
COc1ccc(CN(CC=C(C)CCC=C(C)C)CC=C(C)CCC=C(C)C)cc1OC | – | 68.4 | –
CC(C)=CCCC(C)=CCCC(C)=CCCC(C)=CCCC(C)=CCCC(C)=CCCC(C)=CCCC(C)=CCCC(C)=CCCC(C)=CCN1CCOCCOCCNCCOCCOCC1 [drawing 37] | 57.1 | – | –
CC(C)=CCCC(C)=CCCC(C)=CCCC(C)=CCCC(C)=CCCC(C)=CCCC(C)=CCCC(C)=CCCC(C)=CCCC(C)=CCN(CCO)CC(O)c1ccccc1 (stereo not shown) [drawing 38] | 60.1 | – | –
CC(C)=CCCC(C)=CCCC(C)=CCCC(C)=CCCC(C)=CCCC(C)=CCCC(C)=CCCC(C)=CCCC(C)=CCN(CCc1ccccc1)CC(O)CNC(C)(C)C (stereo not shown) [drawing 41] | 82.9 | – | –
CC(C)=CCCC(C)=CCCC(C)=CCCC(C)=CCCC(C)=CCCC(C)=CCCC(C)=CCCC(C)=CCCC(C)=CCN(CCc1ccccc1)CC(O)CN1CCN(CCO)CC1 (stereo not shown) [drawing 42] | 85.6 | – | –
CC(C)=CCCC(C)=CCCC(C)=CCCC(C)=CCCC(C)=CCCC(C)=CCCC(C)=CCCC(C)=CCCC(C)=CCN(Cc1ccccc1)Cc1ccccc1 [drawing 43] | 50.3 | – | –
CC(C)=CCCC(C)=CCCC(C)=CCCC(C)=CCCC(C)=CCCC(C)=CCCC(C)=CCCC(C)=CCCC(C)=CCN(CCO)Cc1ccccc1 [drawing 44] | 53.4 | – | –
CC(C)=CCCC(C)=CCCC(C)=CCCC(C)=CCCC(C)=CCCC(C)=CCCC(C)=CCCC(C)=CCCC(C)=CCCC(C)=CCN1CCN(Cc2ccccc2)CC1 [drawing 48] | 64.0 | – | –
CC(C)=CCCC(C)=CCCC(C)=CCCC(C)=CCCC(C)=CCCC(C)=CCCC(C)=CCCC(C)=CCCC(C)=CCCC(C)=CCN(CCO)Cc1ccccc1 [drawing 49] | 38.4 | – | –
CC(C)=CCCC(C)=CCCC(C)=CCCC(C)=CCCC(C)=CCCC(C)=CCCC(C)=CCCC(C)=CCCC(C)=CCCC(C)=CCN1CCOCCOCCNCCOCCOCC1 [drawing 56] | – | – | Anti-tumor activity (Survivor on the 30th day) [2]: 3/6
CC(C)=CCCC(C)=CCCC(C)=CCCC(C)=CCCC(C)=CCCC(C)=CCCC(C)=CCCC(C)=CCCC(C)=CCCC(C)=CCN(Cc1ccccc1)CC(O)CN(CCO)CCO (stereo not shown) [drawing 57] | – | – | Anti-tumor activity (Survivor on the 30th day) [2]: 1/6
CC(C)=CCCC(C)=CCCC(C)=CCCC(C)=CCCC(C)=CCCC(C)=CCCC(C)=CCCC(C)=CCCC(C)=CCCC(C)=CCN(Cc1ccccc1)CC(O)CNC(C)(C)C (stereo not shown) [drawing 58] | – | – | Anti-tumor activity (Survivor on the 30th day) [2]: 2/6
CC(C)=CCCC(C)=CCCC(C)=CCCC(C)=CCCC(C)=CCCC(C)=CCCC(C)=CCCC(C)=CCCC(C)=CCN(CCc1ccccc1)CC(O)CN1CCN(CCO)CC1 (stereo not shown) [drawing 59] | – | – | Anti-tumor activity (Survivor on the 30th day) [2]: 4/6

SMILES | Prevention from vaccinia infection (Pock inhibition rate %) [1] [%] | Human interferon 3H-uridine-uptake inhibition rate (%) [3] [%] | also measured
CC(C)=CCCC(C)=CCCC(C)=CCCC(C)=CCCC(C)=CCCC(C)=CCCC(C)=CCCC(C)=CCCC(C)=CCCC(C)=CCN(CCO)CC(O)c1ccccc1 (stereo not shown) [drawing 62] | – | – | LD50 [4]: 258 mg/kg
CC(C)=CCCC(C)=CCCC(C)=CCCC(C)=CCCC(C)=CCCC(C)=CCCC(C)=CCCC(C)=CCCC(C)=CCCC(C)=CCN(Cc1ccccc1)CC(O)CN(CCO)CCO (stereo not shown) [drawing 63] | – | – | LD50 [4]: 162 mg/kg
CC(C)=CCCC(C)=CCCC(C)=CCCC(C)=CCCC(C)=CCCC(C)=CCCC(C)=CCCC(C)=CCCC(C)=CCN(CCc1ccccc1)CC(O)CNC(C)(C)C (stereo not shown) [drawing 64] | – | – | LD50 [4]: 28 mg/kg
CC(C)=CCCC(C)=CCCC(C)=CCCC(C)=CCCC(C)=CCCC(C)=CCCC(C)=CCCC(C)=CCCC(C)=CCN(CCc1ccccc1)CC(O)CN1CCN(CCO)CC1 (stereo not shown) [drawing 65] | – | – | LD50 [4]: 338 mg/kg
CC(C)=CCCC(C)=CCCC(C)=CCCC(C)=CCCC(C)=CCCC(C)=CCCC(C)=CCCC(C)=CCCC(C)=CCN(CCO)Cc1ccccc1 [drawing 66] | – | – | LD50 [4]: 791 mg/kg
CC(C)=CCCC(C)=CCCC(C)=CCCC(C)=CCCC(C)=CCCC(C)=CCCC(C)=CCCC(C)=CCCC(C)=CCCC(C)=CCN1CCOCCOCCNCCOCCOCC1 [drawing 67] | – | 28.3 | –
CC(C)=CCCC(C)=CCCC(C)=CCCC(C)=CCCC(C)=CCCC(C)=CCCC(C)=CCCC(C)=CCCC(C)=CCCC(C)=CCN(CCO)CC(O)c1ccccc1 (stereo not shown) [drawing 68] | – | 4.3 | –
CC(C)=CCCC(C)=CCCC(C)=CCCC(C)=CCCC(C)=CCCC(C)=CCCC(C)=CCCC(C)=CCCC(C)=CCCC(C)=CCN(Cc1ccccc1)CC(O)CN(CCO)CCO (stereo not shown) [drawing 69] | – | 61.3 | –
CC(C)=CCCC(C)=CCCC(C)=CCCC(C)=CCCC(C)=CCCC(C)=CCCC(C)=CCCC(C)=CCCC(C)=CCCC(C)=CCN(Cc1ccccc1)CC(O)CNC(C)(C)C (stereo not shown) [drawing 70] | – | 59.8 | –
CC(C)=CCCC(C)=CCCC(C)=CCCC(C)=CCCC(C)=CCCC(C)=CCCC(C)=CCCC(C)=CCCC(C)=CCN(CCc1ccccc1)CC(O)CNC(C)(C)C (stereo not shown) [drawing 71] | – | 32.6 | –
CC(C)=CCCC(C)=CCCC(C)=CCCC(C)=CCCC(C)=CCCC(C)=CCCC(C)=CCCC(C)=CCCC(C)=CCN(CCc1ccccc1)CC(O)CN1CCN(CCO)CC1 (stereo not shown) [drawing 72] | – | 17.4 | –
CC(C)=CCCC(C)=CCCC(C)=CCCC(C)=CCCC(C)=CCCC(C)=CCCC(C)=CCCC(C)=CCCC(C)=CCN(Cc1ccccc1)Cc1ccccc1 [drawing 73] | – | 4.4 | –
CC(C)=CCCC(C)=CCCC(C)=CCCC(C)=CCCC(C)=CCCC(C)=CCCC(C)=CCCC(C)=CCCC(C)=CCN(CCO)Cc1ccccc1 [drawing 74] | – | 5.1 | –
CC(C)=CCCC(C)=CCCC(C)=CCCC(C)=CCCC(C)=CCCC(C)=CCCC(C)=CCCC(C)=CCCC(C)=CCCC(C)=CCN1CCN(Cc2ccccc2)CC1 [drawing 78] | – | 3.6 | –
CC(C)=CCCC(C)=CCCC(C)=CCCC(C)=CCCC(C)=CCCC(C)=CCCC(C)=CCCC(C)=CCCC(C)=CCCC(C)=CCN(CCO)Cc1ccccc1 [drawing 79] | – | 25.4 | –
CC(C)=CCCC(C)=CCCC(C)=CCCC(C)=CCCC(C)=CCCC(C)=CCCC(C)=CCCC(C)=CCCC(C)=CCCC(C)=CCN(Cc1ccccc1)CC(O)CN(CCO)CCO (stereo not shown) [drawing 83] | – | – | Anti-vaccinia virus activity (Plaque inhibition rate %) [5]: 10.6%
CC(C)=CCCC(C)=CCCC(C)=CCCC(C)=CCCC(C)=CCCC(C)=CCCC(C)=CCCC(C)=CCCC(C)=CCCC(C)=CCN(CCO)Cc1ccccc1 [drawing 84] | – | – | Anti-vaccinia virus activity (Plaque inhibition rate %) [5]: 14.1%
